# PMC7318538, “Bergenia pacumbis from Nepal, an astonishing enzymes inhibitor” (BMC Complementary Medicine and Therapies, 2020)
# Assays:
# [1] = ABTS radical scavenging assay; conditions: 10 min in the dark, absorbance 720 nm; mean ± SD, triplicates
# Experimental: In-vitro 2, 2′-azino-bis (3-ethylbenzothiazoline-6-sulphonic acid) (ABTS) scavenging assay was performed as by Liyanaarachchi et al.. An aliquot of 1 mL of plant extract of varying concentrations was mixed with 3 mL of ABTS working solution and incubated for 10 min in the dark and the decrease in absorbance was recorded at λ = 720 nm in a UV-visible spectrophotometer. Gallic acid and 50% methanol were used as reference and positive control respectively.
# [2] = DPPH radical scavenging assay; conditions: 30 min in the dark, absorbance 517 nm; mean ± SD, triplicates
# Experimental: In-vitro antioxidant potential of the different extracts of B. pacumbis was assessed by 1,1-diphenyl 1–2-picryl-hydrazyl (DPPH) assay accordingly with Jha et al.. One milliliter of plant extract of different concentrations was added in 3 mL of the DPPH solution ([…]) and incubated for 30 min in the dark. Absorbance was measured at the wavelength (λ) = 517 nm in a UV-visible spectrophotometer (UV-1800, SHIMADZU). Gallic acid and methanolic DPPH were used as reference and positive control respectively.
smiles,measurement,setting,value
O=C(O)c1cc(O)c(O)c(O)c1 [Gallic Acid],IC50 Value ABTS,[1],1.96 ± 0.05 µg/mL
same,IC50 Value DPPH,[2],5.12 ± 0.12 µg/mL
